Assays:
[1] = compound: NC(=O)CCCCC1CCSS1 [lipoamide]; assay: thermal stability z-score vs DMSO; higher = more thermally stabilized by treatment; details: HeLa, lipoamide concentration 100 µM
Procedure: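 Cellular thermal proteome profiling in HeLa cells. Cells were treated with 100 µM lipoamide for 1 h, with or without 1 mM arsenate for a further 1 h, then heated to ten temperatures (37-66.3 °C), and soluble protein was quantified by TMT mass spectrometry relative to 0.1% DMSO controls. The thermal stability score (sum of log2 fold changes minus the abundance score) was transformed to a z-score; mean of n = 3 experiments.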

[2] = compound: O=[As]([O-])(O)O.[K+] [potassium arsenate]; assay: as above; details: HeLa; arsenate concentration 1 mM
Procedure: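 Cellular thermal proteome profiling in HeLa cells treated with 1 mM arsenate for 1 h (DMSO pretreatment), heated to ten temperatures (37-66.3 °C). Soluble protein was quantified by TMT mass spectrometry relative to DMSO controls; the thermal stability score was transformed to a z-score; mean of n = 3 experiments.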

[3] = arsenate co-treatment: 1 mM arsenate 1 h
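Also: each temperature applied for 3 min, abundance score taken as mean log2 fold change at the two lowest temperatures, z-score obtained by mean subtraction and division by SD.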

Sequence of UniProt Q13330 (Q13330 whole entry): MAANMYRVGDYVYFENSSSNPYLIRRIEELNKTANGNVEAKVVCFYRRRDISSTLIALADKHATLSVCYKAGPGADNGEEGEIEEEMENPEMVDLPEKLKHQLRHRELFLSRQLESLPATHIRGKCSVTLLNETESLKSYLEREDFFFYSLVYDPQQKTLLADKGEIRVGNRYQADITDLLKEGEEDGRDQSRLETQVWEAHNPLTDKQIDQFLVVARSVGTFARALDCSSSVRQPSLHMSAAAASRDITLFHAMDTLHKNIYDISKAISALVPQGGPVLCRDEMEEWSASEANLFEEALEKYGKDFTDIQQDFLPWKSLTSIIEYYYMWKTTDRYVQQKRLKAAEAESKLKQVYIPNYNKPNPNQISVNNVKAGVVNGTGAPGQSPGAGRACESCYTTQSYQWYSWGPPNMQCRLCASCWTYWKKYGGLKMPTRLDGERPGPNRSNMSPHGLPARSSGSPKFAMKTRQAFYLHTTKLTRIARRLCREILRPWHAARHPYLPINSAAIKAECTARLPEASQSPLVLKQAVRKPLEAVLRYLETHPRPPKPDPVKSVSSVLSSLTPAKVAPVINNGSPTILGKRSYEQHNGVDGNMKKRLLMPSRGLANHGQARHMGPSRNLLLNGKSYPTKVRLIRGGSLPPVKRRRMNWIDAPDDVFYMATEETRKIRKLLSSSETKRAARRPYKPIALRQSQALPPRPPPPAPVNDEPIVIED
Sequence of UniProt Q9BVA0 (Q9BVA0 whole entry): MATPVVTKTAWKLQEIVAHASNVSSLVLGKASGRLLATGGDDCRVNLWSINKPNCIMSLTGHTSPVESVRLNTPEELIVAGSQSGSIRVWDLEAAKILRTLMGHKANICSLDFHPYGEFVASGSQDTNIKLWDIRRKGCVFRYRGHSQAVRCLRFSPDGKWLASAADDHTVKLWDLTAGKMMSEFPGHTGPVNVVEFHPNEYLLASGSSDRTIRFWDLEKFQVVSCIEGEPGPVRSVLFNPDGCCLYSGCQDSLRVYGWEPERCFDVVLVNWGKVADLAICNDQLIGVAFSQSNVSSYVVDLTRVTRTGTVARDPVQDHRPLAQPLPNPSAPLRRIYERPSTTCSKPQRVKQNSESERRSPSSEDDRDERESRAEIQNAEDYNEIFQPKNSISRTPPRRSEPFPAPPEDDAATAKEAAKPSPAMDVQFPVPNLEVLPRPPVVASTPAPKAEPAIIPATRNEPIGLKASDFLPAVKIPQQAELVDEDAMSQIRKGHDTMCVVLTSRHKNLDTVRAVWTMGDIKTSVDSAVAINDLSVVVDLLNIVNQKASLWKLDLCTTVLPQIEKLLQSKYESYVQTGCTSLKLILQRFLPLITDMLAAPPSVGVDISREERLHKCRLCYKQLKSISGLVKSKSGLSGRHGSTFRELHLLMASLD
Sequence of UniProt Q68CQ4 (Q68CQ4 whole entry): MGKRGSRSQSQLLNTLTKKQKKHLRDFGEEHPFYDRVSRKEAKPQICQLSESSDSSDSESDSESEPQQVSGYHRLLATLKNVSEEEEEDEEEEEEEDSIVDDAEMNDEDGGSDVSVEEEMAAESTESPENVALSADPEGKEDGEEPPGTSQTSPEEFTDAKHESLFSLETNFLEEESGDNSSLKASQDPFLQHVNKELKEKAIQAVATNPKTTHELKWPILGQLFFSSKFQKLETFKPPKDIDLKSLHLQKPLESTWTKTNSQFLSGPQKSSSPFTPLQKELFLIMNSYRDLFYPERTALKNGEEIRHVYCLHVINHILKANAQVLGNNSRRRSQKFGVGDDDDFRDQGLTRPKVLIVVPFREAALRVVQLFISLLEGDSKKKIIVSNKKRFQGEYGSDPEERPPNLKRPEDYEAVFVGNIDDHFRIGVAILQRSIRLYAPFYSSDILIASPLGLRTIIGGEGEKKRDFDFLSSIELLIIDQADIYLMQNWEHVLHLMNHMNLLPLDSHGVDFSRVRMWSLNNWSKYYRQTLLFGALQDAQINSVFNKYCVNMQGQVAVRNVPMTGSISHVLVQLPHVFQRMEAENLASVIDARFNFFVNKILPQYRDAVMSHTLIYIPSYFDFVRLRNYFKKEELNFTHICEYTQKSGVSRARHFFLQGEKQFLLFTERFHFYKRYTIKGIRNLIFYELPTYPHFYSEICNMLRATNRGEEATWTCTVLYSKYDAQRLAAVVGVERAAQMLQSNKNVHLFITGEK
Sequence of UniProt Q9H9L3 (Q9H9L3 whole entry): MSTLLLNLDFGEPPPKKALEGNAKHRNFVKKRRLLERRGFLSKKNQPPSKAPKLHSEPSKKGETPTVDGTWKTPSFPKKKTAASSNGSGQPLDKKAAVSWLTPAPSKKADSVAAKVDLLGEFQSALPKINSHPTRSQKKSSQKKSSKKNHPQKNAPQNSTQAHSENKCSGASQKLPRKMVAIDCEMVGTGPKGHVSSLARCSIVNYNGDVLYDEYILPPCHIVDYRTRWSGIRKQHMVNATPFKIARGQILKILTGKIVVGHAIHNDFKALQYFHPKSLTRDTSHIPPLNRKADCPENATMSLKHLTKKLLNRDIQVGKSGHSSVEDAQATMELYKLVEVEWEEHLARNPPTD
Sequence of UniProt O14656 (O14656 whole entry): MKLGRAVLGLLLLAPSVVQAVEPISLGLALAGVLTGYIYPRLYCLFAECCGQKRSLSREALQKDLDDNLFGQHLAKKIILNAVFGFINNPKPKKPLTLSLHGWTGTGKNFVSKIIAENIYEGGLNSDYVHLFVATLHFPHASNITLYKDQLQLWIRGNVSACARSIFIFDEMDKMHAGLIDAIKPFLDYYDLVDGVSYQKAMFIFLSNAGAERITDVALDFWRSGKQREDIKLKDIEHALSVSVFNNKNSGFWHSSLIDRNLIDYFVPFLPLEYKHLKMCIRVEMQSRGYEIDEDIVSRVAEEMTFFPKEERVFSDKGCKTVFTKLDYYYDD
Sequence of UniProt P05455 (P05455 whole entry): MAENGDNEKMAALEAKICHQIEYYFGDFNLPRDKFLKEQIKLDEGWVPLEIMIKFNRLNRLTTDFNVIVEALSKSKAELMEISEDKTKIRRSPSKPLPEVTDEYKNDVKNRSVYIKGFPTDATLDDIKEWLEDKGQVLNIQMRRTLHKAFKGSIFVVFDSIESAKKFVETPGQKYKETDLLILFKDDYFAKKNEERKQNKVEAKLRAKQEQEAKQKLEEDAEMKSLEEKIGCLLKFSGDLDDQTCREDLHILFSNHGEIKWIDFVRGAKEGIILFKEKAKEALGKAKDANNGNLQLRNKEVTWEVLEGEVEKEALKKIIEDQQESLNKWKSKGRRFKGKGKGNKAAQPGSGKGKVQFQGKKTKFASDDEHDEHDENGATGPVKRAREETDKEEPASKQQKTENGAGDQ
Sequence of UniProt Q96ER3 (Q96ER3 whole entry): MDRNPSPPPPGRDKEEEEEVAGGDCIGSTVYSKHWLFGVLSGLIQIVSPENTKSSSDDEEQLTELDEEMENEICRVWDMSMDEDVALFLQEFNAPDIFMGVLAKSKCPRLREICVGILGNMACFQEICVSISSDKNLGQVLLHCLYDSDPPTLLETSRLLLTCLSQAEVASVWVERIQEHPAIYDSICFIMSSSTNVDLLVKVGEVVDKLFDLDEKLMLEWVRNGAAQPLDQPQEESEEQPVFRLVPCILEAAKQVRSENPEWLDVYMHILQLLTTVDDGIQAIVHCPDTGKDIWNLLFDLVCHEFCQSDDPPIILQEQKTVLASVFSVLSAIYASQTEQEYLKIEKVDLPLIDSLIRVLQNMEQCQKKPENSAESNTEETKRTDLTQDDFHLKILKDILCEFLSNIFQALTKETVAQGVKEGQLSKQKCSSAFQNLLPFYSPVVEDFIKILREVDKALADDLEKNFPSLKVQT
Sequence of UniProt Q5VW38 (Q5VW38 whole entry): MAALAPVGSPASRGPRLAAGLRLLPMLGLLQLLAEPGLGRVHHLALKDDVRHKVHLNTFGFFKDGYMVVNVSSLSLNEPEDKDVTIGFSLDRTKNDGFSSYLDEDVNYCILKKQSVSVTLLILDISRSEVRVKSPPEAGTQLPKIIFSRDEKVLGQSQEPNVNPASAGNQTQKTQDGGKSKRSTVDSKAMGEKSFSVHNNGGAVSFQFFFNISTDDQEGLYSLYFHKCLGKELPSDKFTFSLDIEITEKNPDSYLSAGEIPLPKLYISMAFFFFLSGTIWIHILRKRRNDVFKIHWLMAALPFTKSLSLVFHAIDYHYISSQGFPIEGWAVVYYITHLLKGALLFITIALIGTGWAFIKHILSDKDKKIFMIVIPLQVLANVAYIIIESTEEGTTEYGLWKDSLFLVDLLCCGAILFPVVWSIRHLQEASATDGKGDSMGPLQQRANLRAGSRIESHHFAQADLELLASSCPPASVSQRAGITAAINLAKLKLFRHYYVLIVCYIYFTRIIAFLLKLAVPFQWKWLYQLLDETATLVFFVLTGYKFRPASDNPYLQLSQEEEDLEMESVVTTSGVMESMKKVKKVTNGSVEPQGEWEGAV
Sequence of UniProt Q9BV20 (Q9BV20 whole entry): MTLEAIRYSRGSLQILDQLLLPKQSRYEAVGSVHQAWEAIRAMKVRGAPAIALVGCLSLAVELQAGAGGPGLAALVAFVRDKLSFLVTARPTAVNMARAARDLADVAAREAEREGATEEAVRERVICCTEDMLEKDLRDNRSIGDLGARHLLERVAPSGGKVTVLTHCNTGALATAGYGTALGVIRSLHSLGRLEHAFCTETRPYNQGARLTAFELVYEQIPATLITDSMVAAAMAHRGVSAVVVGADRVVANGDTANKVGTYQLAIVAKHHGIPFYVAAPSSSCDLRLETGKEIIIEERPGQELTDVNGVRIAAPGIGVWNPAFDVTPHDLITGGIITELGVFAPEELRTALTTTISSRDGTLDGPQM
Sequence of UniProt Q96HA8 (Q96HA8 whole entry): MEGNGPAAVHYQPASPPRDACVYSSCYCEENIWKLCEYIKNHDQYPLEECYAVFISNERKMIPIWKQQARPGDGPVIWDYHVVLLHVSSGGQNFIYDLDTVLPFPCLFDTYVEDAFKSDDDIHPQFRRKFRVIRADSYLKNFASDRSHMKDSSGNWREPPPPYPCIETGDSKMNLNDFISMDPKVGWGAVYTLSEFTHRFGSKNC

Target FASTKD3 (UniProt Q14CZ7) has a thermal stability z-score [1, 3] of -0.0188, a thermal stability z-score ([1]; arsenate co-treatment: none) of -0.107 and a thermal stability z-score [2] of -0.00397.
ALAD (UniProt P13716) gave a thermal stability z-score [1, 3] of 0.313, a thermal stability z-score ([1]; arsenate co-treatment: none) of 0.885 and a thermal stability z-score [2] of 0.112.
For WDYHV1 (UniProt Q96HA8), the thermal stability z-score [1, 3] was 0.206, the thermal stability z-score ([1]; arsenate co-treatment: none) was 0.157 and the thermal stability z-score [2] was -0.625.
SAAL1 (UniProt Q96ER3) showed a thermal stability z-score [1, 3] of 0.357, a thermal stability z-score ([1]; arsenate co-treatment: none) of -0.345 and a thermal stability z-score [2] of 0.336.
SNRPB2 (UniProt P08579) showed a thermal stability z-score [1, 3] of 0.953, a thermal stability z-score ([1]; arsenate co-treatment: none) of 0.704 and a thermal stability z-score [2] of -0.319.
Target CAPN7 (UniProt Q9Y6W3) has a thermal stability z-score [1, 3] of 0.28, a thermal stability z-score ([1]; arsenate co-treatment: none) of 0.65 and a thermal stability z-score [2] of 0.922.
Work on DDAH2 (UniProt O95865) yielded a thermal stability z-score [1, 3] of 0.838, a thermal stability z-score ([1]; arsenate co-treatment: none) of 0.743 and a thermal stability z-score [2] of 0.22.
GCSH (UniProt P23434) gave a thermal stability z-score [1, 3] of 0.134, a thermal stability z-score ([1]; arsenate co-treatment: none) of -0.126 and a thermal stability z-score [2] of -1.45.
For KIAA0368|ECM29, the thermal stability z-score [1, 3] was -0.212, the thermal stability z-score ([1]; arsenate co-treatment: none) was 0.501 and the thermal stability z-score [2] was 0.537.
NDUFS8 (UniProt O00217) showed a thermal stability z-score [1, 3] of -0.474, a thermal stability z-score ([1]; arsenate co-treatment: none) of -0.512 and a thermal stability z-score [2] of -0.279.
In the case of RRM2 (UniProt P31350), the thermal stability z-score [1, 3] is reported as 0.385, the thermal stability z-score ([1]; arsenate co-treatment: none) is reported as 0.731 and the thermal stability z-score [2] is reported as 0.674.
In the case of ISG20L2 (UniProt Q9H9L3), the thermal stability z-score [1, 3] is reported as -0.0445, the thermal stability z-score ([1]; arsenate co-treatment: none) is reported as -0.0231 and the thermal stability z-score [2] is reported as -0.367.
YIPF4 (UniProt Q9BSR8) showed a thermal stability z-score [1, 3] of 0.0431, a thermal stability z-score ([1]; arsenate co-treatment: none) of -0.44 and a thermal stability z-score [2] of -0.689.
Target HADH (UniProt Q16836) has a thermal stability z-score [1, 3] of 0.136, a thermal stability z-score ([1]; arsenate co-treatment: none) of 0.477 and a thermal stability z-score [2] of -0.432.
RPL31 (UniProt P62899) was tested, and the thermal stability z-score [1, 3] was -0.223, the thermal stability z-score ([1]; arsenate co-treatment: none) was -0.0856 and the thermal stability z-score [2] was -0.8.
In the case of KATNB1 (UniProt Q9BVA0), the thermal stability z-score [1, 3] is reported as 0.145, the thermal stability z-score ([1]; arsenate co-treatment: none) is reported as 0.401 and the thermal stability z-score [2] is reported as -0.452.
With ARL8A (UniProt Q96BM9) the thermal stability z-score [1, 3] was 0.375, the thermal stability z-score ([1]; arsenate co-treatment: none) was 0.0879 and the thermal stability z-score [2] was 0.218.
RPS12 (UniProt P25398) was tested, and the thermal stability z-score [1, 3] was 0.613, the thermal stability z-score ([1]; arsenate co-treatment: none) was 0.884 and the thermal stability z-score [2] was -0.949.
In the case of PTCD3 (UniProt Q96EY7), the thermal stability z-score [1, 3] is reported as 0.272, the thermal stability z-score ([1]; arsenate co-treatment: none) is reported as 0.525 and the thermal stability z-score [2] is reported as -0.0411.
UBE2V2 (UniProt Q15819) gave a thermal stability z-score [1, 3] of 0.177, a thermal stability z-score ([1]; arsenate co-treatment: none) of -0.304 and a thermal stability z-score [2] of -0.0935.
TRRAP (UniProt Q9Y4A5) gave a thermal stability z-score [1, 3] of 0.918, a thermal stability z-score ([1]; arsenate co-treatment: none) of 0.759 and a thermal stability z-score [2] of -1.16.
GPR107 (UniProt Q5VW38) showed a thermal stability z-score [1, 3] of -0.0315, a thermal stability z-score ([1]; arsenate co-treatment: none) of 0.243 and a thermal stability z-score [2] of 0.169.
TPRG1L (UniProt Q5T0D9) showed a thermal stability z-score [1, 3] of -0.302, a thermal stability z-score ([1]; arsenate co-treatment: none) of 0.421 and a thermal stability z-score [2] of 0.921.
Target ATP7A (UniProt Q04656) has a thermal stability z-score [1, 3] of -0.29, a thermal stability z-score ([1]; arsenate co-treatment: none) of -0.175 and a thermal stability z-score [2] of -0.674.
In the case of DTNBP1 (UniProt Q96EV8), the thermal stability z-score [1, 3] is reported as 0.331, the thermal stability z-score ([1]; arsenate co-treatment: none) is reported as 0.505 and the thermal stability z-score [2] is reported as -0.102.
With GXYLT1 (UniProt Q4G148) the thermal stability z-score [1, 3] was -0.938, the thermal stability z-score ([1]; arsenate co-treatment: none) was -0.906 and the thermal stability z-score [2] was 0.387.
CYTH1 (UniProt Q15438) showed a thermal stability z-score [1, 3] of -0.178, a thermal stability z-score ([1]; arsenate co-treatment: none) of 0.00951 and a thermal stability z-score [2] of 0.0222.
With C16ORF62 (UniProt Q7Z3J2) the thermal stability z-score [1, 3] was 0.411, the thermal stability z-score ([1]; arsenate co-treatment: none) was 0.213 and the thermal stability z-score [2] was 0.119.
With STEAP3 (UniProt Q658P3) the thermal stability z-score [1, 3] was 0.104, the thermal stability z-score ([1]; arsenate co-treatment: none) was 0.572 and the thermal stability z-score [2] was -0.122.
RPL22 (UniProt P35268) was tested, and the thermal stability z-score [1, 3] was -0.122, the thermal stability z-score ([1]; arsenate co-treatment: none) was -0.292 and the thermal stability z-score [2] was -0.98.
For RRS1 (UniProt Q15050), the thermal stability z-score [1, 3] was 1.32, the thermal stability z-score ([1]; arsenate co-treatment: none) was -0.132 and the thermal stability z-score [2] was -2.24.
Target CPLX1 (UniProt O14810) has a thermal stability z-score [1, 3] of 0.844, a thermal stability z-score ([1]; arsenate co-treatment: none) of 1.45 and a thermal stability z-score [2] of -0.346.
Work on FAM234A (UniProt Q9H0X4) yielded a thermal stability z-score [1, 3] of -0.353, a thermal stability z-score ([1]; arsenate co-treatment: none) of -0.499 and a thermal stability z-score [2] of -0.743.
NPLOC4 (UniProt Q8TAT6) was tested, and the thermal stability z-score [1, 3] was -0.0676, the thermal stability z-score ([1]; arsenate co-treatment: none) was 0.0243 and the thermal stability z-score [2] was -0.0761.
NAPRT (UniProt Q6XQN6) was tested, and the thermal stability z-score [1, 3] was -0.379, the thermal stability z-score ([1]; arsenate co-treatment: none) was -0.0584 and the thermal stability z-score [2] was -0.197.
SSB (UniProt P05455) gave a thermal stability z-score [1, 3] of -0.542, a thermal stability z-score ([1]; arsenate co-treatment: none) of 0.233 and a thermal stability z-score [2] of 0.363.
STBD1 (UniProt O95210) was tested, and the thermal stability z-score [1, 3] was -0.616, the thermal stability z-score ([1]; arsenate co-treatment: none) was 0.112 and the thermal stability z-score [2] was 0.149.
MRI1 (UniProt Q9BV20) showed a thermal stability z-score [1, 3] of 0.156, a thermal stability z-score ([1]; arsenate co-treatment: none) of 0.0639 and a thermal stability z-score [2] of -0.37.
For DIEXF (UniProt Q68CQ4), the thermal stability z-score [1, 3] was 0.1, the thermal stability z-score ([1]; arsenate co-treatment: none) was 0.0895 and the thermal stability z-score [2] was 0.134.
TXNDC11 (UniProt Q6PKC3) gave a thermal stability z-score [1, 3] of -0.797, a thermal stability z-score ([1]; arsenate co-treatment: none) of -0.984 and a thermal stability z-score [2] of 0.425.
With OLA1 (UniProt Q9NTK5) the thermal stability z-score [1, 3] was 0.522, the thermal stability z-score ([1]; arsenate co-treatment: none) was 0.49 and the thermal stability z-score [2] was -0.463.
Work on TOR1A (UniProt O14656) yielded a thermal stability z-score [1, 3] of -3.18, a thermal stability z-score ([1]; arsenate co-treatment: none) of -3.08 and a thermal stability z-score [2] of 0.174.
ANXA1 (UniProt P04083) showed a thermal stability z-score [1, 3] of 0.957, a thermal stability z-score ([1]; arsenate co-treatment: none) of 0.83 and a thermal stability z-score [2] of -0.37.
With FKBP8 (UniProt Q14318) the thermal stability z-score [1, 3] was -1.33, the thermal stability z-score ([1]; arsenate co-treatment: none) was -0.861 and the thermal stability z-score [2] was 1.05.
Work on DOCK9 (UniProt Q9BZ29) yielded a thermal stability z-score [1, 3] of -0.191, a thermal stability z-score ([1]; arsenate co-treatment: none) of -0.0295 and a thermal stability z-score [2] of -0.457.
IGHMBP2 (UniProt P38935) gave a thermal stability z-score [1, 3] of 0.0798, a thermal stability z-score ([1]; arsenate co-treatment: none) of 0.0388 and a thermal stability z-score [2] of -0.187.
For ATP5H (UniProt O75947), the thermal stability z-score [1, 3] was 0.72, the thermal stability z-score ([1]; arsenate co-treatment: none) was 0.597 and the thermal stability z-score [2] was 0.504.
With SH3BP5L (UniProt Q7L8J4) the thermal stability z-score [1, 3] was 0.286, the thermal stability z-score ([1]; arsenate co-treatment: none) was 0.0604 and the thermal stability z-score [2] was 0.227.
MTA1 (UniProt Q13330) showed a thermal stability z-score [1, 3] of 0.06, a thermal stability z-score ([1]; arsenate co-treatment: none) of 0.414 and a thermal stability z-score [2] of -1.05.
PDPR (UniProt Q8NCN5) was tested, and the thermal stability z-score [1, 3] was 0.399, the thermal stability z-score ([1]; arsenate co-treatment: none) was 0.429 and the thermal stability z-score [2] was -0.181.
PHACTR4 (UniProt Q8IZ21) was tested, and the thermal stability z-score [1, 3] was 0.747, the thermal stability z-score ([1]; arsenate co-treatment: none) was 0.22 and the thermal stability z-score [2] was -0.282.
Work on WDR12 (UniProt Q9GZL7) yielded a thermal stability z-score [1, 3] of 0.771, a thermal stability z-score ([1]; arsenate co-treatment: none) of 0.222 and a thermal stability z-score [2] of 0.0663.
Target LDHB (UniProt P07195) has a thermal stability z-score [1, 3] of 0.679, a thermal stability z-score ([1]; arsenate co-treatment: none) of 0.658 and a thermal stability z-score [2] of 0.13.
TOE1 (UniProt Q96GM8) gave a thermal stability z-score [1, 3] of 0.165, a thermal stability z-score ([1]; arsenate co-treatment: none) of 0.146 and a thermal stability z-score [2] of -2.54.
For TAOK1 (UniProt Q7L7X3), the thermal stability z-score [1, 3] was -0.503, the thermal stability z-score ([1]; arsenate co-treatment: none) was -0.204 and the thermal stability z-score [2] was -0.658.

From the supplement of paper PMC12463676, “Small-molecule dissolution of stress granules by redox modulation benefits ALS models” (Nature Chemical Biology, 2025)
